Assay results reported in US20140350273A1, “PEDIATRIC USES OF CABAZITAXEL” (AVENTIS PHARMA S.A., priority 2012, published 2014).
Where two headings read alike, the source gives them in different places.

Tested on: human Ewing's sarcoma SK-ES-1
Assay type: in vivo
Parameters: Tumor volume changes from baseline: Median (nMad): unit not given here
Protocol: This efficacy may be quantified, for example, as changes in tumor volume for each treated (T) and control (C) group, which are calculated for each animal and each day by subtracting the tumor volume on the day of first treatment (staging day) from the tumor volume on the specified observation day. This allows calculating the tumor growth inhibition: ΔT/ΔC=(median delta T/median delta C)×100. Individual tumor volume changes from baseline are thereafter analyzed by a non-parametric two-way ANOVA-TYPE (with factors: group and repeated days) followed by a post-hoc contrasts analysis, with Bonferroni-Holm adjustment for multiplicity, comparing all treated groups to the control group. […] A probability less than 5% (p<0.05) was considered as significant.
Based on the National Cancer Institute (NCl) standards, a ΔT/ΔC≦40% is the minimal level required to declare activity.
The tumor doubling time (in days; Td) was estimated from the plot of the log linear growth of the control group tumors in exponential growth (100 to 1000 mm^3 range) [T. H. Corbett et al., Cancer, 40: 2660-2680 (1977); F. M. Schabel et al., Cancer Drug Development, Part B, Methods in Cancer Research, 17: 3-51, New York, Academic Press Inc. (1979)].
This efficacy may also be quantified by the number of tumor regressions observed after therapy. Individual mice reporting a tumor volume ≦50% of the Day 0 measurement for two consecutive measurements over a seven day period were considered partial responders (PR). Individual mice lacking palpable tumors (<4×4 mm^2 for two consecutive measurements over a seven day period) were classified as complete responders (CR); a CR that persisted until study completion was considered a tumor-free survivor (TFS).
The efficacy of cabazitaxel in comparison with docetaxel on pediatric solid tumors was determined experimentally in the following manner:
The animals subjected to the experiment are subcutaneously grafted unilaterally with approximately 30 mg of a tumor fragment on day 0. The animals are implanted with a human tumor xenografted in immunocompromized mice. Several days post tumor implantation, mice are randomized according to their body weight to the different groups of treatments and controls. The animals are observed every day. The different animal groups are weighed daily during treatment until the maximum weight loss is reached and subsequent full weight recovery has occurred. The groups are then weighed once or twice a week until the end of the trial.
The tumors are measured 1 to 5 times a week, depending on the tumor doubling time, until the tumor reaches approximately 1,000 mm^3, or until the animal dies (if this occurs before the tumor reaches 1,000 mm^3). The animals are necropsied immediately after euthanasia or death.
The selected tumor model was a human Ewing's sarcoma SK-ES-1, xenografted in SCID mice [Fogh J. New York: Plenum Press, 1975].
Cabazitaxel and docetaxel were weighed for each treatment and dissolved in ethanol. Treatment solutions were prepared first by mixing 1 volume of ethanolic stock solution and 1 volume of polysorbate 80, then by adding 18 volumes of glucose 5% in water.
The Td in days was estimated from the plot of the log linear growth of the control group tumors in exponential growth (100 to 1,000 mm^3 range) and the number of tumor regressions observed after therapy.
The following end points have been used: • Toxicity was declared at dosages inducing ≧20% body weight loss or ≧10% drug death; • Relative tumor growth inhibition was determined on day 22 post tumor implantation when the median tumor size in the control group was 456 mm^3; • Antitumor efficacy was determined by calculating the ΔT/ΔC value in percent, according to the above-mentioned formula; • Tumor regressions (as explained above); • Statistical analysis performed (as explained above).

[1] = 3.5 mg/kg per injection (total 7.0) IV days 15; 19
[2] = 3.5 mg/kg per injection (total 7.0) IV days 15; 19; listed as DOCETAXEL
[3] = 3.5 mg/kg per injection (total 7.0) IV days 15; 19; listed as docetaxel
[4] = 5.6 mg/kg per injection (total 11.2) IV days 15; 19
[5] = 5.6 mg/kg per injection (total 11.2) IV days 15; 19; listed as DOCETAXEL
[6] = 9.0 mg/kg per injection (total 18) IV days 15; 19
[7] = 9.0 mg/kg per injection (total 18) IV days 15; 19; listed as DOCETAXEL
[8] = 14.5 mg/kg per injection (total 29) IV days 15; 19
[9] = 14.5 mg/kg per injection (total 29) IV days 15; 19; listed as DOCETAXEL
[10] = 14.5 mg/kg per injection (total 29) IV days 15; 19; listed as docetaxel

## CC(=O)O[C@@]12CO[C@@H]1C[C@H](O)[C@@]1(C)C(=O)[C@H](O)C3=C(C)[C@@H](OC(=O)[C@H](O)[C@@H](NC(=O)OC(C)(C)C)c4ccccc4)C[C@@](O)([C@@H](OC(=O)c4ccccc4)[C@H]21)C3(C)C [Docetaxel, docetaxel]
[1]
  Average body weight change in % per mouse at nadir: −2.1%
  Drug death: 0/7
  Regressions Complete: 0/7
  Regressions Partial: 0/7
  Tumor free survivors at day 120: 0/7
  day of nadir: 16 days
[2]
  Biological interpretation: Inactive
  ΔT/ΔC in % (day 22): 72%
[3]
  Biological interpretation: inactive
  ΔT/ΔC in % (day 22): > 40%
3.5 mg/kg, day 19
  Tumor volume changes from baseline: Median (nMad): 52
3.5 mg/kg, day 22
  Tumor volume changes from baseline: Median (nMad): 136
3.5 mg/kg, day 25
  Tumor volume changes from baseline: Median (nMad): 712
3.5 mg/kg, day 28
  Tumor volume changes from baseline: Median (nMad): 900
3.5 mg/kg; day 19
  Tumor volume changes from baseline: Median (nMad): 52 (89)
3.5 mg/kg; day 22
  Tumor volume changes from baseline: Median (nMad): 136
3.5 mg/kg; day 25
  Tumor volume changes from baseline: Median (nMad): 712 (29.7)
3.5 mg/kg; day 28
  Tumor volume changes from baseline: Median (nMad): 900
[4]
  Average body weight change in % per mouse at nadir: −5.4%
  Drug death: 0/7
  Regressions Complete: 0/7
  Regressions Partial: 1/7
  Tumor free survivors at day 120: 0/7
  day of nadir: 16 days
[5]
  Biological interpretation: Highly Active
  ΔT/ΔC in % (day 22): <0%
5.6 mg/kg per injection (total 11.2) IV days 15; 19; listed as docetaxel
  Biological interpretation: highly active
5.6 mg/kg, day 19
  Tumor volume changes from baseline: Median (nMad): 0
5.6 mg/kg, day 22
  Tumor volume changes from baseline: Median (nMad): −36
5.6 mg/kg, day 25
  Tumor volume changes from baseline: Median (nMad): 168
5.6 mg/kg, day 28
  Tumor volume changes from baseline: Median (nMad): 342
5.6 mg/kg; day 19
  Tumor volume changes from baseline: Median (nMad): 0 (106.7)
5.6 mg/kg; day 22
  Tumor volume changes from baseline: Median (nMad): −36 (60.8)
5.6 mg/kg; day 25
  Tumor volume changes from baseline: Median (nMad): 168 (80.1)
5.6 mg/kg; day 28
  Tumor volume changes from baseline: Median (nMad): 342 (89)
5.6 mg/kg; day 32
  Tumor volume changes from baseline: Median (nMad): 480
5.6 mg/kg; day 35
  Tumor volume changes from baseline: Median (nMad): 2005
[6]
  Average body weight change in % per mouse at nadir: −6.6%
  Drug death: 0/7
  Regressions Complete: 0/7
  Regressions Partial: 6/7
  Tumor free survivors at day 120: 0/7
  day of nadir: 23 days
[7]
  Biological interpretation: Highly Active
  ΔT/ΔC in % (day 22): <0%
9.0 mg/kg per injection (total 18) IV days 15; 19; listed as docetaxel
  Biological interpretation: highly active
9 mg/kg, day 19
  Tumor volume changes from baseline: Median (nMad): 0
9 mg/kg, day 22
  Tumor volume changes from baseline: Median (nMad): −101
9 mg/kg, day 25
  Tumor volume changes from baseline: Median (nMad): −126
9 mg/kg, day 28
  Tumor volume changes from baseline: Median (nMad): −126
9 mg/kg; day 19
  Tumor volume changes from baseline: Median (nMad): 0 (37.1)
9 mg/kg; day 22
  Tumor volume changes from baseline: Median (nMad): −101
9 mg/kg; day 25
  Tumor volume changes from baseline: Median (nMad): −126
9 mg/kg; day 28
  Tumor volume changes from baseline: Median (nMad): −126 (46)
9 mg/kg; day 32
  Tumor volume changes from baseline: Median (nMad): −49
9 mg/kg; day 35
  Tumor volume changes from baseline: Median (nMad): 201
[8]
  Average body weight change in % per mouse at nadir: −10.5%
  Drug death: 0/7
  Regressions Complete: 3/7
  Regressions Partial: 7/7
  day of nadir: 27 days
[9]
  Biological interpretation: Highly Active
  Tumor free survivors at day 120: 0/7
  ΔT/ΔC in % (day 22): <0%
[10]
  Biological interpretation: highly active
  Tumor free survivors at day 120: no TFS
14.5 mg/kg, day 19
  Tumor volume changes from baseline: Median (nMad): −18
14.5 mg/kg, day 22
  Tumor volume changes from baseline: Median (nMad): −156
14.5 mg/kg, day 25
  Tumor volume changes from baseline: Median (nMad): −173
14.5 mg/kg, day 28
  Tumor volume changes from baseline: Median (nMad): −164
14.5 mg/kg; day 19
  Tumor volume changes from baseline: Median (nMad): −18 (77.1)
14.5 mg/kg; day 22
  Tumor volume changes from baseline: Median (nMad): −156
14.5 mg/kg; day 25
  Tumor volume changes from baseline: Median (nMad): −173
14.5 mg/kg; day 28
  Tumor volume changes from baseline: Median (nMad): −164
14.5 mg/kg; day 32
  Tumor volume changes from baseline: Median (nMad): −162
14.5 mg/kg; day 35
  Tumor volume changes from baseline: Median (nMad): −162
14.5 mg/kg; day 39
  Tumor volume changes from baseline: Median (nMad): 290
14.5 mg/kg; day 41
  Tumor volume changes from baseline: Median (nMad): 274
14.5 mg/kg; day 43
  Tumor volume changes from baseline: Median (nMad): 427.5
14.5 mg/kg; day 45
  Tumor volume changes from baseline: Median (nMad): 574
